This is an account of results in patent US20110105509A1 (Wyeth, LLC, priority 2009, published 2011).

In general, IC50 refers to the concentration needed to halve the response being measured.

The target of the test is T1, CRTH2 (Homo sapiens, UniProt Q9Y5Y4).
T1 construct: expressed in transfected cells; host or cells: CHO cells
T1 sequence (Q9Y5Y4 1-395): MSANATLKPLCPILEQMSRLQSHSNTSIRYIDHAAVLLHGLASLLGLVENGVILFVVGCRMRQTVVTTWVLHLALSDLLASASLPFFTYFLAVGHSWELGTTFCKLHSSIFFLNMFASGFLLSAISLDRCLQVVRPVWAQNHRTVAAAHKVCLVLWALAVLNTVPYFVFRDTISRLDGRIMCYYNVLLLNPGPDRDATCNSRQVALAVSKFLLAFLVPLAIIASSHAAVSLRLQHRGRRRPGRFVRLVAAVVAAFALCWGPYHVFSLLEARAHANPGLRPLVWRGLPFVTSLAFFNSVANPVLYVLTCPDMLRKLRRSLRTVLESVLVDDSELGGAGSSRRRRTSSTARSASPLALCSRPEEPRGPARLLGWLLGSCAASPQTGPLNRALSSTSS
Description: FRET based competitive immunoassay (cAMP) in CRTH2 expressing CHO cells. The following applies: CRTH2 expressing CHO cells incubated with forskolin and PGD2; Eu3+ cryptate-labeled anti-cAMP and d2-labeled cAMP. The format is cell-based. The protocol:
FRET Assay: To evaluate potency compounds were tested in a FRET based competitive immunoassay in which CRTH2 expressing CHO cells were incubated in the presence of forskolin and PGD2 along with Eu3+ cryptate-labeled anti-cAMP and d2-labeled cAMP.
`Cc1c(-c2nn(Cc3c(F)cccc3F)c(=O)c3ccccc23)c2ccccc2n1CC(=O)O` [Example 172, 2-(3-(3-(2,6-difluorobenzyl)-4-oxo-3,4-dihydrophthalazin-1-yl)-2-methyl-1H-indol-1-yl)acetic acid] had an IC50 of 40 nM.

As for `Cc1ccc(Cn2nc(-c3c(C)n(CC(=O)O)c4ccccc34)c3ccccc3c2=O)cc1` [Example 173, 2-(2-methyl-3-(3-(4-methylbenzyl)-4-oxo-3,4-dihydrophthalazin-1-yl)-1H-indol-1-yl)acetic acid], the IC50 was found to be 76 nM.

For `Cc1c(-c2nn(C)c(=O)c3ccccc23)c2ccccc2n1CC(=O)O` [Example 174, 2-(2-methyl-3-(3-methyl-4-oxo-3,4-dihydrophthalazin-1-yl)-1H-indol-1-yl)-acetic acid], the IC50 was determined as 980 nM.

The molecule `CCn1nc(-c2c(C)n(CC(=O)O)c3ccccc23)c2ccccc2c1=O` [Example 175, 2-(3-(3-ethyl-4-oxo-3,4-dihydrophthalazin-1-yl)-2-methyl-1H-indol-1-yl)-acetic acid] yielded an IC50 of 175 nM.

Take `Cc1c(-c2nn(CC3CC3)c(=O)c3ccccc23)c2ccccc2n1CC(=O)O` [Example 176, 2-(3-(3-(cyclopropylmethyl)-4-oxo-3,4-dihydrophthalazin-1-yl)-2-methyl-1H-indol-1-yl)acetic acid]: the IC50 worked out at 123 nM.

`Cc1c(-c2nn(CC(F)(F)F)c(=O)c3ccccc23)c2ccccc2n1CC(=O)O` [Example 177, 2-(2-Methyl-3-(4-oxo-3-(2,2,2-trifluoroethyl)-3,4-dihydrophthalazin-1-yl)-1H-indol-1-yl)-acetic acid] displayed an IC50 of 215 nM.

For the molecule `Cc1c(-c2nn(C3CC3)c(=O)c3ccccc23)c2ccccc2n1CC(=O)O` [Example 178, 2-(3-(3-cyclopropyl-4-oxo-3,4-dihydrophthalazin-1-yl)-2-methyl-1H-indol-1-yl)-acetic acid], the IC50 was 215 nM.

`Cc1c(-c2nn(C3CCCC3)c(=O)c3ccccc23)c2ccccc2n1CC(=O)O` [Example 179, 2-(3-(3-cyclopentyl-4-oxo-3,4-dihydrophthalazin-1-yl)-2-methyl-1H-indol-1-yl)-acetic acid]: the IC50 was above 1000 nM.

Consider `Cc1c(-c2ccc(=O)n(Cc3ccccc3)n2)c2ccccc2n1CC(=O)O` [Example 180, 2-(3-(1-benzyl-6-oxo-1,6-dihydropyridazin-3-yl)-2-methyl-1H-indol-1-yl)-acetic acid], for which the IC50 amounted to 96 nM.

As to `Cc1c(-c2ccc(=O)n(C(C)C)n2)c2ccccc2n1CC(=O)O` [Example 181, 2-(3-(1-isopropyl-6-oxo-1,6-dihydropyridazin-3-yl)-2-methyl-1H-indol-1-yl)-acetic acid], the IC50 was 920 nM.

As for `CCn1nc(-c2c(C)n(CC(=O)O)c3ccccc23)ccc1=O` [Example 182, 2-(3-(1-ethyl-6-oxo-1,6-dihydropyridazin-3-yl)-2-methyl-1H-indol-1-yl)-acetic acid], the IC50 was 1720 nM.

Regarding `Cc1c(-c2ccc(=O)n(C)n2)c2ccccc2n1CC(=O)O` [Example 183, 2-(2-methyl-3-(1-methyl-6-oxo-1,6-dihydropyridazin-3-yl)-1H-indol-1-yl)-acetic acid], the IC50 came out at 4990 nM.

For the molecule `Cc1c(-c2ccc(=O)n(CC3CC3)n2)c2ccccc2n1CC(=O)O` [Example 184, 2-(3-(1-(cyclopropylmethyl)-6-oxo-1,6-dihydropyridazin-3-yl)-2-methyl-1H-indol-1-yl)acetic acid], the IC50 is 62 nM.

With `Cc1c(-c2ccc(=O)n(CC(F)(F)F)n2)c2ccccc2n1CC(=O)O` [Example 185, 2-(2-methyl-3-(6-oxo-1-(2,2,2-trifluoroethyl)-1,6-dihydropyridazin-3-yl)-1H-indol-1-yl)acetic acid], the IC50 was above 1000 nM.

With `COC(=O)Cn1c(C)c(-c2ccc(=O)n(Cc3ccc(F)cc3F)n2)c2ccccc21` [Example 186, methyl 2-(3-(1-(2,4-difluorobenzyl)-6-oxo-1,6-dihydropyridazin-3-yl)-2-methyl-1H-indol-1-yl)acetate], the IC50 stood at 150 nM.

Turning to `Cc1c(-c2ccc(=O)n(Cc3cc(F)c(F)cc3F)n2)c2ccccc2n1CC(=O)O` [Example 187, 2-(2-methyl-3-(6-oxo-1-(2,4,5-trifluorobenzyl)-1,6-dihydropyridazin-3-yl)-1H-indol-1-yl)acetic acid], the IC50 came out at 75 nM.

The molecule `Cc1c(-c2ccc(=O)n(Cc3cccc(F)c3F)n2)c2ccccc2n1CC(=O)O` [Example 188, 2-(3-(1-(2,3-difluorobenzyl)-6-oxo-1,6-dihydropyridazin-3-yl)-2-methyl-1H-indol-1-yl)acetic acid] gave an IC50 of 227 nM.

Molecule `Cc1c(-c2ccc(=O)n(Cc3ccc(F)cc3)n2)c2ccccc2n1CC(=O)O` [Example 189, 2-(3-(1-(4-fluorobenzyl)-6-oxo-1,6-dihydropyridazin-3-yl)-2-methyl-1H-indol-1-yl)acetic acid] returned an IC50 of 45 nM.

`Cc1c(-c2ccc(=O)n(Cc3ccccc3F)n2)c2ccccc2n1CC(=O)O` [Example 190, 2-(3-(1-(2-fluorobenzyl)-6-oxo-1,6-dihydropyridazin-3-yl)-2-methyl-1H-indol-1-yl)acetic acid] gave an IC50 of 867 nM.

Molecule `Cc1ccc2c(c1)c(-c1ccc(=O)n(Cc3ccccc3)n1)c(C)n2CC(=O)O` [Example 191, 2-(3-(1-benzyl-6-oxo-1,6-dihydropyridazin-3-yl)-2,5-dimethyl-1H-indol-1-yl)acetic acid] registered an IC50 of 64 nM.

Molecule `Cc1ccc2c(c1)c(-c1nn(Cc3ccccc3)c(=O)c3ccccc13)c(C)n2CC(=O)O` [Example 192, 2-(3-(3-Benzyl-4-oxo-3,4-dihydrophthalazin-1-yl)-2,5-dimethyl-1H-indol-1-yl)acetic acid] returned an IC50 of 4 nM.

For `Cc1c(Cc2ccc(=O)n(Cc3cc(F)c(F)cc3F)n2)c2cc(F)ccc2n1CC(=O)O` [Example 193, 2-(5-fluoro-2-methyl-3-((6-oxo-1-(2,4,5-trifluorobenzyl)-1,6-dihydro-pyridazin-3-yl)methyl)-1H-indol-1-yl)acetic acid], the IC50 stood at 8 nM.

Molecule `Cc1c(Cc2ccc(=O)n(Cc3ccncc3)n2)c2cc(F)ccc2n1CC(=O)O` [Example 194, 2-(5-fluoro-2-methyl-3-((6-oxo-1-(pyridin-4-ylmethyl)-1,6-dihydro-pyridazin-3-yl)methyl)-1H-indol-1-yl)acetic acid] returned an IC50 of 98 nM.

For `Cc1c(Cc2ccc(=O)n(Cc3cccnc3)n2)c2cc(F)ccc2n1CC(=O)O` [Example 195, 2-(5-fluoro-2-methyl-3-((6-oxo-1-(pyridin-3-ylmethyl)-1,6-dihydropyridazin-3-yl)methyl)-1H-indol-1-yl)acetic acid], the IC50 turned out to be 12 nM.

As for `Cc1c(Cc2ccc(=O)n(Cc3ccccn3)n2)c2cc(F)ccc2n1CC(=O)O` [Example 196, 2-(5-fluoro-2-methyl-3-((6-oxo-1-(pyridin-2-ylmethyl)-1,6-dihydropyridazin-3-yl)methyl)-1H-indol-1-yl)acetic acid], the IC50 is 18 nM.

`Cc1c(Cc2ccc(=O)n(CC(C)(C)O)n2)c2cc(F)ccc2n1CC(=O)O` [Example 197, (5-fluoro-3-{[1-(2-hydroxy-2-methylpropyl)-6-oxo-1,6-dihydropyridazin-3-yl]-methyl}-2-methyl-1H-indol-1-yl)acetic acid] returned an IC50 of 270 nM.

Take `Cc1c(-c2nn(Cc3ccc(C(F)(F)F)cc3)c(=O)c3ccccc23)c2cc(Cl)ccc2n1CC(=O)O` [Example 198, 2-(5-Chloro-2-methyl-3-(4-oxo-3-(4-(trifluoromethyl)benzyl)-3,4-dihydrophthalazin-1-yl)-1H-indol-1-yl)acetic acid]: the IC50 came to 46 nM.

`Cc1c(-c2nn(Cc3ccccc3C(F)(F)F)c(=O)c3ccccc23)c2cc(Cl)ccc2n1CC(=O)O` [Example 199, 2-(5-chloro-2-methyl-3-(4-oxo-3-(2-(trifluoromethyl)benzyl)-3,4-dihydrophthalazin-1-yl)-1H-indol-1-yl)acetic acid] registered an IC50 of 19 nM.

Molecule `Cc1c(-c2nn(Cc3cccc(C(F)(F)F)c3)c(=O)c3ccccc23)c2cc(Cl)ccc2n1CC(=O)O` [Example 200, 2-(5-Chloro-2-methyl-3-(4-oxo-3-(3-(trifluoromethyl)benzyl)-3,4-dihydro-phthalazin-1-yl)-1H-indol-1-yl)acetic acid] gave an IC50 of 45 nM.

`Cc1c(Cc2ccc(=O)n(CC(O)(C(F)(F)F)C(F)(F)F)n2)c2cc(F)ccc2n1CC(=O)O` [Example 201, [5-fluoro-2-methyl-3-({6-oxo-1-[3,3,3-trifluoro-2-hydroxy-2-(trifluoromethyl)-propyl]-1,6-dihydro-pyridazin-3-yl}methyl)-1H-indol-1-yl]acetic acid] yielded an IC50 of 22 nM.

`Cc1c(-c2nn(Cc3ccccc3C(F)(F)F)c(=O)c3ccccc23)c2cc(F)ccc2n1CC(=O)O` [Example 202, 2-(5-fluoro-2-methyl-3-(4-oxo-3-(2-(trifluoromethyl)benzyl)-3,4-dihydrophthalazin-1-yl)-1H-indol-1-yl)acetic acid]: the IC50 was found to be 9 nM.

Turning to `Cc1c(-c2nn(Cc3cccc(C(F)(F)F)c3)c(=O)c3ccccc23)c2cc(F)ccc2n1CC(=O)O` [Example 203, 2-(5-fluoro-2-methyl-3-(4-oxo-3-(3-(trifluoromethyl)benzyl)-3,4-dihydro-phthalazin-1-yl)-1H-indol-1-yl)acetic acid], the IC50 is 10 nM.
